Common to all, as to type: biochemical
The target of test [1] is TYK2 (Homo sapiens, UniProt P29597). As to the kind of experiment: TYK2 kinase inhibition (Table A1). Particulars: Table D1.
Test [2] deals with T1, human JAK2 (a.a. 828-1132) (Homo sapiens, UniProt O60674).
T1 construct: JAK2 (a.a. 828-1132); His tag (N); made in house; host or cells: insect cells (baculovirus)
As to the kind of experiment: In vitro JAK kinase assay (HTRF, phosphorylation of a biotinylated peptide), JAK2. Particulars: Table D1. The method, boiled down:
(§1)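 Kinase reactions ran at room temperature for 1 h with ATP matched per isoform (JAK1 90 μM, JAK2 30 μM, JAK3 3 μM). After an EDTA stop, the phosphorylated biotin-peptide was read by HTRF using Eu-Py20 and SA-APC after 40 min binding.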
In general terms: Time-resolved FRET reads energy transfer from a long-lived donor to a nearby acceptor.

Test [3] addresses T2, human JAK3 (a.a. 781-1124) (Homo sapiens, UniProt P52333).
T2 construct: JAK3 (a.a. 781-1124); His tag (N); made in house; host or cells: insect cells (baculovirus)
As to the kind of experiment: In vitro JAK kinase assay (HTRF, phosphorylation of a biotinylated peptide), JAK3. Conditions: Table D1. Put shortly:
as §1

Test [4] has as its target T3, human JAK1 (a.a. 837-1142) (Homo sapiens, UniProt P23458).
T3 construct: human JAK1 (a.a. 837-1142); His tag (N); made in house; host or cells: insect cells (baculovirus)
In words: In vitro JAK kinase assay (HTRF, phosphorylation of a biotinylated peptide), JAK1. Particulars: Table D1; read-out: JAK1 IC50. The method, boiled down: as §1

A value given as a limit tells only on which side of the number the result lay.

Experimental findings from patent US8871753B2, “Macrocyclic compounds and their use as kinase inhibitors” (Incyte Corporation, priority 2008, dated 2014) are described below.

T2 sequence (P52333 781-1124): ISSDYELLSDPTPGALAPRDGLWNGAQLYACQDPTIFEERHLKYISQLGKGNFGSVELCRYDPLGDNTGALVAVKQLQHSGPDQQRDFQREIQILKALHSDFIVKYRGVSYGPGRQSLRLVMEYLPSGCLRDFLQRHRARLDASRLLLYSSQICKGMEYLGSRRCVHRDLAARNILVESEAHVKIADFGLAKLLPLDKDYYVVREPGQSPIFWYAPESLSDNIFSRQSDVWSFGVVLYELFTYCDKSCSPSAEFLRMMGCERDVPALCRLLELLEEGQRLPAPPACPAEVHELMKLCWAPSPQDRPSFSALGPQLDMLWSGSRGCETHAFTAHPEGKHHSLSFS
T1 sequence (O60674 828-1132): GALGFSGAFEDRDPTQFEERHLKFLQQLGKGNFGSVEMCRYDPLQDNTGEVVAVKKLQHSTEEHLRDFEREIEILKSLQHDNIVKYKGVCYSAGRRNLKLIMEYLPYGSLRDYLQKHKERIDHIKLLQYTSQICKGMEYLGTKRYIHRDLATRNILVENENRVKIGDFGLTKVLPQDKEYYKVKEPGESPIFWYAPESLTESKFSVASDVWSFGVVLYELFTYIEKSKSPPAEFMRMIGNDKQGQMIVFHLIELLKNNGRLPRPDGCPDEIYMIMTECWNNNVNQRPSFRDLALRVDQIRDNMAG
Chain of TYK2 (P29597 whole entry): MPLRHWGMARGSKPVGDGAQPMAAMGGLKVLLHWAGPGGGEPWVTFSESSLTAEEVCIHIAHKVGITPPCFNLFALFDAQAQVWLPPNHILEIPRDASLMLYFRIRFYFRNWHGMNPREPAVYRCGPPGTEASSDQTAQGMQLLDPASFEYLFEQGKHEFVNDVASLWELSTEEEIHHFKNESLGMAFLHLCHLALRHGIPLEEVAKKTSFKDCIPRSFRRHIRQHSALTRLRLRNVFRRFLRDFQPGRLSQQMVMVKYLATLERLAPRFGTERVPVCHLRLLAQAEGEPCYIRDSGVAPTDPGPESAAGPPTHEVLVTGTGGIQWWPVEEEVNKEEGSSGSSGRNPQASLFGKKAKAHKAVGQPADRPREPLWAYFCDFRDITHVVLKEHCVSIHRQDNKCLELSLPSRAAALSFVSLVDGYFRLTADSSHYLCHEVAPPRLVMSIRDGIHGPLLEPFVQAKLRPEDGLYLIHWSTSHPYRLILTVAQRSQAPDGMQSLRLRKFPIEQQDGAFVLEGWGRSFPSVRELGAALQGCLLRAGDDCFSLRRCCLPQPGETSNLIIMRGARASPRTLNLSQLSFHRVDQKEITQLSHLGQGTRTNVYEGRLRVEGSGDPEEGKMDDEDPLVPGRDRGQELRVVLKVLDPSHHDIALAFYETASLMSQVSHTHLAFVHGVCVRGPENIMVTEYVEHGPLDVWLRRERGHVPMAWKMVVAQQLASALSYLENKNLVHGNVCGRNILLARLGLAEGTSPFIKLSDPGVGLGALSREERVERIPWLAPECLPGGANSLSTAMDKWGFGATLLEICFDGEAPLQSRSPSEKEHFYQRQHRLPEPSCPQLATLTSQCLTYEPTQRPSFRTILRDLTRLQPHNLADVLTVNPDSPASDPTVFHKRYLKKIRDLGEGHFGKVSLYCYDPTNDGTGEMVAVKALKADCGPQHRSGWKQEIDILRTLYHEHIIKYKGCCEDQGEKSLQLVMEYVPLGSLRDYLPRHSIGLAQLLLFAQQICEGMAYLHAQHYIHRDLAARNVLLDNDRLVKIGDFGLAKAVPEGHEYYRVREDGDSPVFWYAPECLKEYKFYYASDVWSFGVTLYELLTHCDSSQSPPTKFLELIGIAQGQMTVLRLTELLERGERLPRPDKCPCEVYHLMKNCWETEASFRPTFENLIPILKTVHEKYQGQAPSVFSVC
T3 sequence (P23458 849-1154): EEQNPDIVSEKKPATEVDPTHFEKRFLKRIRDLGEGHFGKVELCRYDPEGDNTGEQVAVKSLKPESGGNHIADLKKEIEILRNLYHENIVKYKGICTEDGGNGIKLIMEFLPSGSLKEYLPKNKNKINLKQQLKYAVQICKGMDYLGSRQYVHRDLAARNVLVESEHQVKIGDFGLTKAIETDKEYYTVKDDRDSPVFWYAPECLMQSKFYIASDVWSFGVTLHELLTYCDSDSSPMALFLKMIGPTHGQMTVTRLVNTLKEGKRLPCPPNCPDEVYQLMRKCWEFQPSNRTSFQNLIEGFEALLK

Regarding `N#Cc1ccccc1N1CCN(C(=O)COc2ccc3cc2CCc2cncc(c2)Nc2ncc(Cl)c(n2)N3)CC1` [Example D235, 2-[4-({[6-Chloro-2,4,8,18,22-pentaazatetracyclo[14.3.1.1(3,7).1(9,13)]docosa-1(20),3(22),4,6,9(21),10,12,16,18-nonaen-12-yl]oxy}acetyl)piperazin-1-yl]benzonitrile tris(trifluoroacetate)], the IC50 (as a rule, the concentration that inhibits the measured activity by half) in test [1] is more than 400 nM; in test [2] it was more than 400 nM; in test [3] it was more than 400 nM; in test [4], 64 nM.
Turning to `N#Cc1ccc(N2CCN(C(=O)COc3ccc4cc3CCc3cncc(c3)Nc3ncc(Cl)c(n3)N4)CC2)cc1` [Example D236, 4-[4-({[6-Chloro-2,4,8,18,22-pentaazatetracyclo[14.3.1.1(3,7).1(9,13)]docosa-1(20),3(22),4,6,9(21),10,12,16,18-nonaen-12-yl]oxy}acetyl)piperazin-1-yl]benzonitrile tris(trifluoroacetate)], the IC50 in test [1] was more than 400 nM; in test [2], 288 nM; in test [3] it was more than 400 nM; in test [4] it was 90 nM.
As for `Cc1ccnc(N2CCN(C(=O)COc3ccc4cc3CCc3cncc(c3)Nc3ncc(Cl)c(n3)N4)CC2)c1` [Example D237, 6-Chloro-12-{2-[4-(4-methylpyridin-2-yl)piperazin-1-yl]-2-oxoethoxy}-2,4,8,18,22-pentaazatetracyclo[14.3.1.1(3,7).1(9,13)]docosa-1(20),3(22),4,6,9(21),10,12,16,18-nonaene tris(trifluoroacetate)], the 50% inhibitory concentration (IC50) in test [1] was more than 400 nM; in test [2], 180 nM; in test [3], more than 400 nM; in test [4] it was 29 nM.
`N#Cc1cccnc1N1CCN(C(=O)COc2ccc3cc2CCc2cncc(c2)Nc2ncc(Cl)c(n2)N3)CC1` [Example D238, 2-[4-({[6-Chloro-2,4,8,18,22-pentaazatetracyclo[14.3.1.1(3,7).1(9,13)]docosa-1(20),3(22),4,6,9(21),10,12,16,18-nonaen-12-yl]oxy}acetyl)piperazin-1-yl]nicotinonitrile tris(trifluoroacetate)]: the half-maximal inhibitory concentration (IC50) in test [1] is more than 400 nM; in test [2], more than 400 nM; in test [3], more than 400 nM; in test [4], 41 nM.
For the compound `N#Cc1ccc(N2CCN(C(=O)COc3ccc4cc3CCc3cncc(c3)Nc3ncc(Cl)c(n3)N4)CC2)nc1` [Example D239, 6-[4-({[6-Chloro-2,4,8,18,22-pentaazatetracyclo[14.3.1.1(3,7).1(9,13)]docosa-1(20),3(22),4,6,9(21),10,12,16,18-nonaen-12-yl]oxy}acetyl)piperazin-1-yl]nicotinonitrile tris(trifluoroacetate)], the IC50 in test [1] is more than 400 nM; in test [2] it was 208 nM; in test [3] it was more than 400 nM; in test [4], 101 nM.
As for `O=C(COc1ccc2cc1CCc1cncc(c1)Nc1ncc(Cl)c(n1)N2)N1CCN(c2cccc(Cl)n2)CC1` [Example D240, 6-Chloro-12-{2-[4-(6-chloropyridin-2-yl)piperazin-1-yl]-2-oxoethoxy}-2,4,8,18,22-pentaazatetracyclo[14.3.1.1(3,7).1(9,13)]docosa-1(20),3(22),4,6,9(21),10,12,16,18-nonaene tris(trifluoroacetate)], the IC50 was more than 400 nM in test [1], more than 400 nM in test [2], more than 400 nM in test [3] and 255 nM in test [4].
Regarding `COc1ccccc1N1CCN(C(=O)COc2ccc3cc2CCc2cncc(c2)Nc2ncc(Cl)c(n2)N3)CC1` [Example D241, 6-Chloro-12-{2-[4-(2-methoxyphenyl)piperazin-1-yl]-2-oxoethoxy}-2,4,8,18,22-pentaazatetracyclo[14.3.1.1(3,7).1(9,13)]docosa-1(20),3(22),4,6,9(21),10,12,16,18-nonaene tris(trifluoroacetate)], the IC50 in test [1] is more than 400 nM; in test [2] it was 180 nM; in test [3], more than 400 nM; in test [4], 41 nM.
For the compound `O=C(COc1ccc2cc1CCc1cncc(c1)Nc1ncc(Cl)c(n1)N2)N1CCN(c2ccc(F)cc2)CC1` [Example D242, 6-Chloro-12-{2-[4-(4-fluorophenyl)piperazin-1-yl]-2-oxoethoxy}-2,4,8,18,22-pentaazatetracyclo[14.3.1.1(3,7).1(9,13)]docosa-1(20),3(22),4,6,9(21),10,12,16,18-nonaene tris(trifluoroacetate)], the IC50 was more than 400 nM in test [1], 159 nM in test [2], more than 400 nM in test [3] and 46 nM in test [4].
Regarding `O=C(COc1ccc2cc1CCc1cncc(c1)Nc1ncc(Cl)c(n1)N2)N1CCN(c2ccncc2)CC1` [Example D243, 6-Chloro-12-[2-oxo-2-(4-pyridin-4-ylpiperazin-1-yl)ethoxy]-2,4,8,18,22-pentaazatetracyclo[14.3.1.1(3,7).1(9,13)]docosa-1(20),3(22),4,6,9(21),10,12,16,18-nonaene tris(trifluoroacetate)], the IC50 in test [1] is 326 nM; in test [2] it was 300 nM; in test [3] it was more than 400 nM; in test [4], 60 nM.
With `O=C(COc1ccc2cc1CCc1cncc(c1)Nc1ncc(Cl)c(n1)N2)N1CCN(c2cc(Cl)ccn2)CC1` [Example D244, 6-Chloro-12-{2-[4-(4-chloropyridin-2-yl)piperazin-1-yl]-2-oxoethoxy}-2,4,8,18,22-pentaazatetracyclo[14.3.1.1(3,7).1(9,13)]docosa-1(20),3(22),4,6,9(21),10,12,16,18-nonaene tris(trifluoroacetate)], the IC50 in test [1] was more than 400 nM; in test [2], 358 nM; in test [3], more than 400 nM; in test [4] it was 80 nM.
Take `O=C(COc1ccc2cc1CCc1cncc(c1)Nc1ncc(Cl)c(n1)N2)N1CCN(c2nccc3occc23)CC1` [Example D245, 6-Chloro-12-[2-(4-furo[3,2-c]pyridin-4-ylpiperazin-1-yl)-2-oxoethoxy]-2,4,8,18,22-pentaazatetracyclo[14.3.1.1(3,7).1(9,13)]docosa-1(20),3(22),4,6,9(21),10,12,16,18-nonaene tris(trifluoroacetate)]: the IC50 in test [1] is more than 400 nM; in test [2], more than 400 nM; in test [3], more than 400 nM; in test [4] it was 75 nM.
Regarding `Cc1ccc(N2CCN(C(=O)COc3ccc4cc3CCc3cncc(c3)Nc3ncc(Cl)c(n3)N4)CC2)nc1` [Example D246, 6-Chloro-12-{2-[4-(5-methylpyridin-2-yl)piperazin-1-yl]-2-oxoethoxy}-2,4,8,18,22-pentaazatetracyclo[14.3.1.1(3,7).1(9,13)]docosa-1(20),3(22),4,6,9(21),10,12,16,18-nonaene tris(trifluoroacetate)], the IC50 was more than 400 nM in test [1], 226 nM in test [2], more than 400 nM in test [3] and 30 nM in test [4].
For `O=C(COc1ccc2cc1CCc1cncc(c1)Nc1ncc(Cl)c(n1)N2)N1CCN(c2cc(Cl)cc(Cl)n2)CC1` [Example D247, 6-Chloro-12-{2-[4-(4,6-dichloropyridin-2-yl)piperazin-1-yl]-2-oxoethoxy}-2,4,8,18,22-pentaazatetracyclo[14.3.1.1(3,7).1(9,13)]docosa-1(20),3(22),4,6,9(21),10,12,16,18-nonaene tris(trifluoroacetate)], the half-maximal inhibitory concentration (IC50) in test [1] was more than 400 nM; in test [2] it was more than 400 nM; in test [3], more than 400 nM; in test [4], 82 nM.
